{
  "source": "patent US11807873B2",
  "about": "“Conversion of S-lignin compounds to useful intermediates” (Alliance for Sustainable Energy, LLC, priority 2020, dated 2023)",
  "molecules": {"B1": {"name": "GalA (gallate 3,4-dioxygenase) (Pseudomonas putida KT2440) (protein)", "chain": "MARIIGGLAVSHTPTIGFAVDHDKQEEAAWAPIFESFEPIRTWLQQRQPDVLFYIFNDHITSFFFDHYSAFTLGVDEQYGVADEGGNPRDLPPVGGHAALSRHIGQSLMADEFDMSFFRDKPLDHGFFSPMSALLPCDESWPVQIVPLQVGVLQLPIPTARRCYKLGQALRRAIESYPEDLKVAIVATGGVSHQVHGERCGFNNPEWDAQFLDLLVNDPQRLTEMTLAEYATLGGMEGAEVITWLIMRGTLSANVERKHQSYYLPSMTGIATLLLENRDQALPAPVNERHRQHMQHQLAGAEQLEGTYPYTLERSAKGYRLNKFLHRMIEPQWRQRFLSEPEALYREAGLSEEESDLLRRRDWRGLIHYGVIFFVLEKLGAVLGVSNLDIYAAMRGQSIEDFMKTRNQQVRYSVAGKAPN"}, "B2": {"name": "PcaHG (PCA 3,4-dioxygenase) (Pseudomonas putida) (protein)", "chain 1": "MPAQDNSRFVIRDRNWHPKALTPDYKTSIARSPRQALVSIPQSISETTGPNFSHLGFGAHDHDLLLNFNNGGLPIGERIIVAGRVVDQYGKPVPNTLVEMWQANAGGRYRHKNDRYLAPLDPNFGGVGRCLTDSDGYYSFRTIKPGPYPWRNGPNDWRPAHIHFGISGPSIATKLITQLYFEGDPLIPMCPIVKSIANPEAVQQLIAKLDMNNANPMDCLAYRFDIVLRGQRKTHFENC", "chain 2": "PIELLPETPSQTAGPYVHIGLALEAAGNPTRDQEIWNRLAKPDAPGEHILLLGQVYDGNGHLVRDSFLEVWQADANGEYQDAYNLENAFNSFGRTATTFDAGEWTLHTVKPGVVNNAAGVPMAPHINISLFARGINIHLHTRLYFDDEAQANAKCPVLNLIEQPQRRETLIAKRCEVDGKTAYRFDIRIQGEGETVFFDF", "notes": "poly-histidine tag with TEV protease site (N, cleaved yes); made in house; host or cells: E. coli BL-21 λ(DE3)"}},
  "key": {"[1]": {"target": "T1, VanAB (vanillate O-demethylase) (Pseudomonas putida, UniProt Q88GI6)", "T1 sequence (Q88GI6 entry or part of it)": "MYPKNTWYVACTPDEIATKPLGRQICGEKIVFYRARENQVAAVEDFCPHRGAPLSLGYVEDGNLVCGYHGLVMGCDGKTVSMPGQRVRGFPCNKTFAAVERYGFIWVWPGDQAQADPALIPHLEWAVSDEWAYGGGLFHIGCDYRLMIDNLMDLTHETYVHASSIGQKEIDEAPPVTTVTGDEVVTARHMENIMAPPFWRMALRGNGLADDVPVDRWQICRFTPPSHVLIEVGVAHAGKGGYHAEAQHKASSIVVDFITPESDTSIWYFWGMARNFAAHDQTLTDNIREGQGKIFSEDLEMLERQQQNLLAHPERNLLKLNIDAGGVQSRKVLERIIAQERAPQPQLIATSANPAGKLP", "T1 sequence (Q88GI5 entry or part of it, further chain)": "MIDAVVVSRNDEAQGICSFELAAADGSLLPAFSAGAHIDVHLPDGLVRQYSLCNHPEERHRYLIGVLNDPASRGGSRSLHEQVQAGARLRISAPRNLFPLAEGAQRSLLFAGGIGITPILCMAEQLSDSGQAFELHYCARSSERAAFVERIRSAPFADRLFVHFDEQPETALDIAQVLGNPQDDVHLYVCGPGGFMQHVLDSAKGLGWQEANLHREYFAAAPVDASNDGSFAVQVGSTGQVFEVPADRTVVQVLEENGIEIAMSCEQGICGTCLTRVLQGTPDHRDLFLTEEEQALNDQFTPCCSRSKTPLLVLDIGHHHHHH", "assay": "VanAB coupling of O-demethylation to O2 consumption (HPLC-based assay)", "format": "biochemical, P. putida KT2440", "details": "quenched after ~100 μM O2 consumed; for Coupling Substrate/O2: ratio of aromatic substrate consumed:O2 consumed; for Coupling Product/O2: ratio of product produced:O2 consumed", "description": "The ability of VanAB to catalyze the O-demethylation of VA, SA, and 3MGA was evaluated first. Using an HPLC-based assay, the enzyme transformed VA, SA, and 3MGA to PCA, 3MGA, and GA, respectively (see FIG. 14). When reactions were quenched after ˜100 μM of O2 was consumed, the amounts of substrate consumed, and product detected, were equal to the amount of O2 consumed within error (see Table 3). […] However, in the absence of VanA, VanB consumed NADH and O2 to produce H2O2 in the presence of SA. This adventitious consumption of NADH and O2 was not observed in the presence of VA or 3MGA. Further, in reactions containing 2 μM VanB, 1 μM VanA completely outcompeted the reaction of SA with VanB.\nHPLC characterization of transformation products and flavin content: Oxygenase turnover and VanB flavin content were evaluated using a Waters 2695 Separation HPLC module (Milford, MA) equipped with a Waters 2996 photodiode array detector. VanAB reactions contained ˜1 μM VanA, ˜1 μM VanB and 200 μM substrate in air-saturated HEPES (I=0.1 M, pH 7.5). Reactions were incubated for 30 min at 25° C., quenched with glacial acetic acid (final concentration 10% (v/v)), then centrifuged and filtered (0.2 μm) to remove protein. Substrates and products were resolved using a 250×4.6 mm Luna 5 m C18(2) column (Phenomenex, Torrance, CA) and a linear gradient of 0.1% formic acid and methanol. Compound amounts were assessed using integrated peak areas at 260 nm and standard curves for each compound."}, "[2]": {"target": "T2, PcaHG (PCA 3,4-dioxygenase) (Pseudomonas putida, UniProt P00436+P00437)", "T2 construct": "poly-histidine tag with TEV protease site (N, cleaved yes); made in house; host or cells: E. coli BL-21 λ(DE3)", "T2 sequence (P00437 1-239)": "B2 chain 1", "T2 sequence (P00436 2-201 limits assumed)": "B2 chain 2", "assay": "PcaHG steady-state kinetics, oxygraph and spectrophotometric assays", "format": "biochemical, P. putida KT2440", "method": "(§4) Steady-state kinetic analyses: Kinetic assays were performed by monitoring the consumption of O2 using a Clark-type polarographic O2 electrode OXYG1 (Hansatech) connected to a circulating water bath. Assays with the exception of GalA were performed in 1 mL of air-saturated 40 mM HEPES, 80 mM NaCl (I=0.1 M, pH 7.5) at 25° C. GalA assays were performed in 40 mM MOPS, 80 mM NaCl (I=0.1 M, pH 7.0) at 30° C. The electrode was calibrated daily according to the manufacturer's instructions using air-saturated buffer and water depleted of 02 via addition of sodium hydrosulfite. Stock solutions were prepared fresh daily. The background rate of O2-consumption was recorded prior to initiating the reaction and was subtracted from the measured reaction rate. Steady-state kinetic parameters were evaluated by fitting the Michaelis-Menten equation to the data using the least-squares fitting of LEONORA.\n(§5) Stock solutions of the substrates were made in dimethylsulfoxide (DMSO). The final concentration of DMSO in the assay solutions was <1% (v/v). […] The reaction was initiated by adding 0.1 μM PcaHG."}, "[3]": {"target": "GalA (gallate 3,4-dioxygenase) (Pseudomonas putida, UniProt Q88JX5)", "assay": "GalA inactivation kinetic analyses during turnover", "format": "biochemical", "description": "(§1) GalA preparations had 0.5 equivalents of Fe per mol GalA. GalA cleaved GA with 3-fold higher specificity (˜9×10^5 s^−1 M^−1, see Table 3, FIG. 20) than previously reported. The partition ratio for GA was ˜1900 based on 02 consumption for given amount of GalA (see Table 3, Equation 1). […] Because high concentrations of GalA were needed to detect 3MGA-cleavage activity, cell lysates were used to investigate the inactivation of GalA by 3MGA. Importantly, the inactivation of GalA by GA was similar for the purified enzyme in E. coli lysate (j3^app˜3×10^−2 s^−1, Table 3, FIG. 21). The apparent rate constant of inactivation of GalA by 3MGA was less than 50% higher than for GA (see Table 3).\nInactivation kinetic analyses: GalA inactivation assays were performed by monitoring consumption of 02 using OXYG1 as described in Steady-state kinetic analyses. […] To obtain soluble E. coli lysate containing GalA, 50 mL of culture was suspended in ˜900 μL of 50 mM HEPPS, pH 8.0, 100 mM NaCl. The resuspension was pipetted into a 1.5 mL screw cap tube containing ˜100 μL of 0.1 mm silica sand. Cell were lysed using a Bead Beater rotor (MP Biomedical). Cellular debris and sand were removed by centrifugation. The clarified was removed to a micro centrifuge tube and kept on ice until use.\n(§2) The amount of GalA added to the assay was such that the enzyme was completely inactivated before 10% of either the catecholic substrate or 02 was consumed in the reaction mixture. The partition ratio was calculated using Equation 1 shown above.\n(§3) The apparent apparent rate constant of inactivation during catalytic turnover in air-saturated buffer, j3^app, was determined by fitting Equation 2 to reaction progress curves where St is the substrate concentration at time t. st=(s0−s∞)e^−j^3^app^t+s∞ Equation 2"}, "[4]": {"target": "T1, VanAB (vanillate O-demethylase)", "assay": "VanAB steady-state kinetics, O2 consumption (oxygraph)", "method": "In evaluating the parameters for VA, 0.4 μM VanA was used to ensure steady-state conditions at low concentrations of VA.\nas §4\nFor VanAB, the standard reaction contained 1 μM VanA, 2 μM Ht-VanB, and 400 μM NADH. […] Stock solutions of the substrates were made in dimethylsulfoxide (DMSO). The final concentration of DMSO in the assay solutions was <1% (v/v). For PcaHG, the standard reaction contained 250 μM PCA. The reaction was initiated by adding 0.1 μM PcaHG. […] The reaction was initiated by adding 0.05 μM GalA."}, "[5]": {"system": "wild-type P. putida KT2440", "assay": "Toxicity effects on growth of wild-type strain (OD600)", "format": "cell-based, Pseudomonas putida KT2440", "details": "M9 minimal media, 20 mM glucose", "description": "Error bars represent the absolute value of two biological replicates.\nBacterial strains, media, and cultivations: Pseudomonas putida KT2440 (ATCC® 47054) was utilized as the wild-type and base strain for all further engineering. Gene deletion, insertion, or replacements in P. putida KT2440 were performed using the antibiotic/sacB counter-selection method as previously described. Diagnostic colony PCR was performed with MyTaq® HS Red Mix (Bioline, USA) to confirm gene deletion, insertion, or replacement (see Table 3 and Table 8). M9 minimal medium was prepared as 6.78 g/L Na2HPO4, 3 g/L KH2PO4, 0.5 g/L NaCl, 1 g/L NH4Cl, 2 mM MgSO4, 100 μM CaCl2), and 18 μM FeSO4, pH 7.0. […] Sodium formate (Sigma, USA) was used to prepare formate stocks in water. Stocks of syringaldehyde were made in 2% (v/v) DMSO. Glucose at 1 M concentration (Sigma, USA) was prepared in water. All carbon sources were 0.2 μm filtered prior to media addition. KT2440 strains were revived from glycerol stocks in LB medium overnight at 30° C. prior to washing in M9 minimal medium. Washed cells were inoculated to an OD600 of 0.1 in 25 mL of M9 minimal media supplemented with the specified carbon/energy source in 125 mL baffled flasks and incubated at 30° C., 225 rpm in biological duplicate or triplicate, as indicated. In the case of 3MGA, the culture volume was reduced to 10 mL in 50 mL baffled flasks due to the cost of this substrate. […] In the case of formate feeding, cultivations were subsequently pH adjusted to pH 7.1-7.3 with formic acid, which provided an additional 0.13-1.75 mmol of formate. To measure cell growth and quantify metabolites, cultures were sampled by removing 1 mL, measuring OD600 of a 1:10 or 1:100 dilution, centrifuging to pellet the cells, and blanking with the OD600 of the supernatant to account for darkening of some cultures due to oxidation of intermediates.\nIn vivo reactions: Wild-type P. putida KT2440 and engineered strains were cultivated overnight in LB medium and centrifuged. […] Flasks were inoculated to an OD600 of 0.1 and incubated at 30° C., 225 rpm. Cultures were sampled periodically by removing 1 mL that was used to measure the OD600 as well as metabolite analysis (see below). Shake flask experiments were performed in triplicate. In the case of 3-MGA, the culture was downscaled to 10 mL in 50 mL baffled flasks and performed in duplicate."}, "[6]": {"substrate": "O=C(O)c1cc(O)c(O)c(O)c1", "assay": "GalA steady-state kinetics, O2 consumption (oxygraph)", "format": "biochemical, P. putida KT2440", "details": "other: air-saturated 40 mM MOPS, 80 mM NaCl (I = 0.1M, pH 7.0), 30° C", "method": "Steady-state kinetic analyses: Kinetic assays were performed by monitoring the consumption of O2 using a Clark-type polarographic O2 electrode OXYG1 (Hansatech) connected to a circulating water bath. […] GalA assays were performed in 40 mM MOPS, 80 mM NaCl (I=0.1 M, pH 7.0) at 30° C. The electrode was calibrated daily according to the manufacturer's instructions using air-saturated buffer and water depleted of 02 via addition of sodium hydrosulfite. Stock solutions were prepared fresh daily. The background rate of O2-consumption was recorded prior to initiating the reaction and was subtracted from the measured reaction rate. Steady-state kinetic parameters were evaluated by fitting the Michaelis-Menten equation to the data using the least-squares fitting of LEONORA.\nStock solutions of the substrates were made in dimethylsulfoxide (DMSO). The final concentration of DMSO in the assay solutions was <1% (v/v). […] The reaction was initiated by adding 0.05 μM GalA."}, "[7]": {"substrate": "COc1cc(C(=O)O)cc(O)c1O", "assay": "GalA inactivation kinetic analyses during turnover", "format": "biochemical", "details": "other: calculated from j3^app and partition ratio, MOPS (I = 0.1M, pH 7.0), 30° C", "description": "as §1\nInactivation kinetic analyses: GalA inactivation assays were performed by monitoring consumption of 02 using OXYG1 as described in Steady-state kinetic analyses. […]\nas §2, §3"}, "[8]": {"substrate": "O=C(O)c1cc(O)c(O)c(O)c1", "assay": "PcaHG steady-state kinetics, oxygraph and spectrophotometric assays", "format": "biochemical, P. putida KT2440", "details": "other: air-saturated HEPES (I = 0.1M), pH 7.5, 25° C", "method": "as §4, §5"}},
  "data": [
    {"molecule": "COc1cc(C(=O)O)cc(O)c1O", "note": "[3MGA, 3-O-methylgallate]", "values": [
      {"measurement": "Coupling Substrate/O2", "setting": "[1]", "result": "1.0 ± 0.1 mol:mol"},
      {"measurement": "Coupling Product/O2", "setting": "[1]", "result": "1.1 ± 0.2 mol:mol"},
      {"measurement": "cleavage by PcaHG", "setting": "[2]; oxygraph and spectrophotometric assays", "result": "did not detectably cleave"},
      {"measurement": "apparent rate constant of inactivation of GalA, higher than for GA", "setting": "[3]", "result": "less than 50%"},
      {"measurement": "kcat^app relative to that for GA", "setting": "[3]", "result": "~0.025", "unit": "%"},
      {"measurement": "partition ratio relative to that for GA", "setting": "[3]", "result": 0.2, "unit": "%"},
      {"measurement": "j3^app (apparent rate constant of inactivation during turnover)", "setting": "[3]; air-saturated 40 mM MOPS, 80 mM NaCl (I = 0.1M, pH 7.0), 30° C", "result": "3.8 ± 0.3 ×10^−2 s^−1"},
      {"measurement": "Partition Ratio", "setting": "[3]; calculated from the O2 consumption for a given amount of GalA", "result": "3.3 ± 0.6"},
      {"measurement": "apparent specificity of VanAB relative to that for VA", "setting": "[4]; O-demethylation", "result": "~1", "unit": "%"}
    ]},
    {"molecule": "O=C(O)c1ccc(O)c(O)c1", "note": "[PCA, protocatechuate]", "values": [
      {"measurement": "specific activity of purified PcaHG", "setting": "[2]", "result": 3.8, "unit": "U/mg"},
      {"measurement": "kcat^app", "setting": "[2]; air-saturated HEPES (I = 0.1M), pH 7.5, 25° C", "result": "0.95 ± 0.03", "unit": "s⁻¹"},
      {"measurement": "Km", "setting": "[2]; air-saturated HEPES (I = 0.1M), pH 7.5, 25° C, read-out: KM^app", "result": "33 ± 2", "unit": "µM"}
    ]},
    {"molecule": "COc1cc(C(=O)O)cc(OC)c1O", "note": "[SA, syringate]", "values": [
      {"measurement": "toxicity to P. putida KT2440 compared with VA", "setting": "[5]", "result": "more toxic"},
      {"measurement": "growth at 120 mM substrate", "setting": "[5]", "result": "able to grow"}
    ]},
    {"molecule": "COc1cc(C=O)cc(OC)c1O", "note": "[SAL, syringaldehyde]", "values": [
      {"measurement": "toxicity to P. putida KT2440 compared with VA", "setting": "[5]", "result": "more toxic"}
    ]},
    {"molecule": "COc1cc(C(=O)O)ccc1O", "note": "[VA, vanillate]", "values": [
      {"measurement": "Coupling Substrate/O2", "setting": "[1]", "result": "1.3 ± 0.2 mol:mol"},
      {"measurement": "Coupling Product/O2", "setting": "[1]", "result": "1.1 ± 0.1 mol:mol"},
      {"measurement": "growth at 120 mM substrate", "setting": "[5]", "result": "not"},
      {"measurement": "apparent specificity of VanAB", "setting": "[4]; 0.4 μM VanA", "result": "~200000", "unit": "s⁻¹ M⁻¹"}
    ]},
    {"molecule": "B1", "values": [
      {"measurement": "Km", "setting": "[6]", "result": "59 ± 5", "unit": "µM"},
      {"measurement": "kcat", "setting": "[6]", "result": "52 ± 4", "unit": "s⁻¹"},
      {"measurement": "kcat/Km", "setting": "[6]", "result": "90 ± 10 ×10^4 s^−1 · M^−1"},
      {"measurement": "kcat", "setting": "[7]", "result": "0.012 ± 0.002^d s^−1"}
    ]},
    {"molecule": "B2", "values": [
      {"measurement": "Km", "setting": "[8]", "result": "15 ± 2", "unit": "µM"},
      {"measurement": "kcat", "setting": "[8]", "result": "0.0675 ± 0.0003", "unit": "s⁻¹"},
      {"measurement": "kcat/Km", "setting": "[8]", "result": "0.51 ± 0.06 ×10^4 s^−1 · M^−1"}
    ]}
  ]
}
